From US20040166163A1, “Antibacterial composition for medical tool” (priority 2001, published 2004)

What was measured:
Type in all cases: cell-based
Bacillus subtilis = test: Antimicrobial test of PVC test piece, bacteria (surviving cells); settings: soft PVC sheet; ZnPT 0.01 + test compound 0.3 parts per 100 PVC; 35° C., 2 days
Description: (§1) A mixture having the formulation described below was roll kneaded at 170° C. to prepare a sheet, which was pressed at 180° C. for 5 minutes to obtain a 0.5 mm thick soft PVC sheet. A 10 mm×10 mm test piece was cut out of the soft PVC sheet and evaluated for antimicrobial properties against bacteria (Nos. 1 to 5 in Table 1) and fungi (Nos. 6 to 8 in Table 1) in accordance with the respective methods described below.
(§2) The culture solution was applied to the test piece, and the test piece was tightly covered with polyethylene cling film. After cultivation at 35° C. for 2 days, the number of surviving cells was counted and rated based on the following criteria.
(§3) A mixture having the formulation shown below was roll kneaded at 170° C. to prepare a sheet, which was pressed at 180° C. for 5 minutes to obtain a 0.5 mm thick semi-rigid PVC sheet. A 10 mm×10 mm test piece was cut out of the semi-rigid PVC sheet. Zinc pyrithione and a test compound were previously compounded to prepare an antimicrobial composition in a predetermined ratio to give the formulation. The test piece was tested in the same manner as in Example 1.

Escherichia coli = test: as above; settings: soft PVC sheet; ZnPT 0.01 + test compound 0.3 parts per 100 PVC; 35° C., 2 days
Description: as §1, §2, §3

Lactobacillus = test: as above; settings: soft PVC sheet; ZnPT 0.01 + test compound 0.3 parts per 100 PVC; 35° C., 2 days
Description: as §1, §2, §3

MRSA = test: as above; settings: soft PVC sheet; ZnPT 0.01 + test compound 0.3 parts per 100 PVC; 35° C., 2 days
Description: as §1, §2, §3

Staphylococcus aureaus = test: as above; settings: soft PVC sheet; ZnPT 0.01 + test compound 0.3 parts per 100 PVC; 35° C., 2 days
Description: as §1, §2, §3

Brewer's yeast = test: Antimicrobial test of PVC test piece, fungi (growth on agar-covered piece); design: key: A: No growth on the test piece.; B: The grown fungi covers less than 30% of the test piece's surface area.; C: The grown fungi covers 30% or more and less than 70% of the test piece's surface area.; D: The grown fungi covers 70% or more of the test piece's surface area; settings: soft PVC sheet; ZnPT 0.01 + test compound 0.3 parts per 100 PVC; 35° C., 1 week
Description: as §1
(§4) The test piece was placed at the center of a culture dish, and a common agar medium was poured to thinly cover the test piece. The culture solution was applied to the agar medium and cultivated at 35° C. for 1 week. The growth of the fungus was observed and rated based on the following criteria.
as §3

Kurokawa mold = test: as above; design: key: A: No growth on the test piece.; B: The grown fungi covers less than 30% of the test piece's surface area.; C: The grown fungi covers 30% or more and less than 70% of the test piece's surface area.; D: The grown fungi covers 70% or more of the test piece's surface area; settings: soft PVC sheet; ZnPT 0.01 + test compound 0.3 parts per 100 PVC; 35° C., 1 week
Description: as §1, §4, §3

Trichophyton = test: as above; design: key: A: No growth on the test piece.; B: The grown fungi covers less than 30% of the test piece's surface area.; C: The grown fungi covers 30% or more and less than 70% of the test piece's surface area.; D: The grown fungi covers 70% or more of the test piece's surface area; settings: soft PVC sheet; ZnPT 0.01 + test compound 0.3 parts per 100 PVC; 35° C., 1 week
Description: as §1, §4, §3

SMILES | Survival rate rating, microorganism 3: Bacillus subtilis (Bacillus subtilis) | Survival rate rating, microorganism 5: Escherichia coli (Escherichia coli) | Survival rate rating, microorganism 4: Lactobacillus (Lactobacillus) | Survival rate rating, microorganism 2: MRSA (MRSA) | Survival rate rating, microorganism 1: Staphylococcus aureaus (Staphylococcus aureaus) | Fungal growth rating, microorganism 7: Brewer's yeast (Brewer's yeast) | Fungal growth rating, microorganism 8: Kurokawa mold (Kurokawa mold) | Fungal growth rating, microorganism 6: Trichophyton (Trichophyton)
Cc1cc2c(c(C(C)(C)C)c1)OP(=O)([O-])Oc1c(cc(C)cc1C(C)(C)C)C2.[Na+] [No. 6] | A (The survival rate is less than 0.1%.) | A (The survival rate is less than 0.1%.) | A (The survival rate is less than 0.1%.) | A (The survival rate is less than 0.1%.) | A (The survival rate is less than 0.1%.) | A | A | A
CC1c2cc(C(C)(C)C)cc(C(C)(C)C)c2OP(=O)([O-])Oc2c1cc(C(C)(C)C)cc2C(C)(C)C.[Na+] (stereo not drawn) [No. 7] | A (The survival rate is less than 0.1%.) | A (The survival rate is less than 0.1%.) | A (The survival rate is less than 0.1%.) | A (The survival rate is less than 0.1%.) | A (The survival rate is less than 0.1%.) | A | A | A
Cc1c(C(C)(C)C)cc(C(C)(C)C)c2c1C(C)c1c(C)c(C(C)(C)C)cc(C(C)(C)C)c1OP(=O)([O-])O2.[Na+] (stereo not drawn) [No. 8] | A (The survival rate is less than 0.1%.) | A (The survival rate is less than 0.1%.) | A (The survival rate is less than 0.1%.) | A (The survival rate is less than 0.1%.) | A (The survival rate is less than 0.1%.) | A | A | A
